Read-outs that look alike come from different tables or passages of the source.
What was measured:
[1] = biological target: T1, human recombinant HDAC1 (Homo sapiens, UniProt Q13547); test: HDAC1 enzyme activity inhibition (HDAC Fluorimetric Drug Discovery Kit); format: biochemical; settings: read-out: HDAC1
T1 construct: purchased Enzo Life Science, Inc. BML-SE456
Method in brief: (§1)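 Compounds in 5-fold dilution series were incubated with […] enzyme and 10 μM substrate at 30° C for 60 minutes. Fluor de Lys Developer II was then added for 30 minutes to stop the reaction and develop the fluorescent signal.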

[2] = biological target: T2, human recombinant HDAC6 (Homo sapiens, UniProt Q9UBN7); test: HDAC6 enzyme activity inhibition (HDAC Fluorimetric Drug Discovery Kit); format: biochemical
T2 construct: purchased Calbiochem Inc. 382180
T2 sequence (Q9UBN7 1-1215): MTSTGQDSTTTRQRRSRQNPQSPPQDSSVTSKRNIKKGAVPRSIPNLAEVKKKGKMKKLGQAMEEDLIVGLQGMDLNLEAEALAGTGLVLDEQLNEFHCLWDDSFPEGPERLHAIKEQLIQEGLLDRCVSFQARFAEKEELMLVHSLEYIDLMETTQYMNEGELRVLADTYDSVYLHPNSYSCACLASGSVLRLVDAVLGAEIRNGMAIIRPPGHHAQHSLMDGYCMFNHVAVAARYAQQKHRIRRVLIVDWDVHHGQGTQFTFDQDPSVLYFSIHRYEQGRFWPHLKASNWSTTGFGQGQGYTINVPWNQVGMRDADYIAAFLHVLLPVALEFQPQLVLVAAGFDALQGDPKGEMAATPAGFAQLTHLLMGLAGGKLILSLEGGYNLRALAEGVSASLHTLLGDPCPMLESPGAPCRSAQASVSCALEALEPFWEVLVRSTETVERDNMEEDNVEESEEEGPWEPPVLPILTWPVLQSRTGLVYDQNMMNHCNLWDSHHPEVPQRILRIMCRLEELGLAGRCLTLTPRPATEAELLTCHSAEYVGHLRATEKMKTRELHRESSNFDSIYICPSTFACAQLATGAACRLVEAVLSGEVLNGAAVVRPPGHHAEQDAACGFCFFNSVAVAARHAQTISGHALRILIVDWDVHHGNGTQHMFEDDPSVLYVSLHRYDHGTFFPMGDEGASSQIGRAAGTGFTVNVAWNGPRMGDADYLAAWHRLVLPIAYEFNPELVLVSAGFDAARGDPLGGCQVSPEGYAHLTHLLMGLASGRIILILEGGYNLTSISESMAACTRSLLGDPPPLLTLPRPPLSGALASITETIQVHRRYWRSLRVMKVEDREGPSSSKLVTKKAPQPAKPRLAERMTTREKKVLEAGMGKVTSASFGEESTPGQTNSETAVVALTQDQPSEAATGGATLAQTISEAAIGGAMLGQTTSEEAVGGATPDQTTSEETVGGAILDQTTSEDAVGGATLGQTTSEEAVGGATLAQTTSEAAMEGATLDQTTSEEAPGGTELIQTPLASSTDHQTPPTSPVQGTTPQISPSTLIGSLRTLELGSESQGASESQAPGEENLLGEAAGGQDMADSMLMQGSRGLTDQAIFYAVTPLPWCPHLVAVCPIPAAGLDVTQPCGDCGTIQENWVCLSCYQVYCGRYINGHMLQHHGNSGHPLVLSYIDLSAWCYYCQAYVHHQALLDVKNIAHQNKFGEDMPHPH
Method in brief: as §1

[3] = human recombinant HDAC1, Fluor de Lys substrate, 30° C. 60 minutes
[4] = human recombinant HDAC6, same protocol as HDAC1
[5] = human recombinant HDAC1, IC50 calculated with GraphPad Prism
[6] = human recombinant HDAC6, IC50 calculated with GraphPad Prism

T1 sequence (Q13547 whole entry): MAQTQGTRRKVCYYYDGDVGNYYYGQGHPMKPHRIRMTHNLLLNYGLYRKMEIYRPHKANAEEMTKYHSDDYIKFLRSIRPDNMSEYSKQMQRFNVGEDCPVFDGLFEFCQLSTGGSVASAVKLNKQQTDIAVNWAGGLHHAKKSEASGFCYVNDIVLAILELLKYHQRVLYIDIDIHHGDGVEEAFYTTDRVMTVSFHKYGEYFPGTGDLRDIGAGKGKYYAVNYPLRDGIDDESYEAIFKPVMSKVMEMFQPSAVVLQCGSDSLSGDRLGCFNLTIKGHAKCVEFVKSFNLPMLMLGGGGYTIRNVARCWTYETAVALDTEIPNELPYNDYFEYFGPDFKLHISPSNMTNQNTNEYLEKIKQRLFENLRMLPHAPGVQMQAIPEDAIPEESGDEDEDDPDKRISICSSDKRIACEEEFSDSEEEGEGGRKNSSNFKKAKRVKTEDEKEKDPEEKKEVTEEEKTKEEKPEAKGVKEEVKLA

IC50 [1, 3] [nM]	HDAC6 selectivity (fold) ([2]; HDAC6 over HDAC1)	IC50 [2, 4] [nM]	IC50 [1, 5] [nM]	HDAC6 selectivity (fold) ([2]; HDAC1 IC50 / HDAC6 IC50)	IC50 [2, 6] [nM]	Structure (SMILES)
> 50000	2732	18.3	–	–	–	CC(C)N1CCN(c2cccc(-c3cn(Cc4ccc(-c5nnc(C(F)F)o5)cn4)nn3)c2F)CC1 [Compound 4571, 2-(difluoromethyl)-5-(6-((4-(2-fluoro-3-(4-isopropylpiperazin-1-yl)phenyl)-1H-1,2,3-triazol-1-yl)methyl)pyridin-3-yl)-1,3,4-oxadiazole]
> 50000	980	51	–	–	–	Fc1cc(-c2nnc(C(F)F)o2)ccc1Cn1cc(-c2ccc(CN3CCC3)nc2)nn1 [Compound 18174, 2-(4-((4-(6-(azetidin-1-ylmethyl)pyridin-3-yl)-1H-1,2,3-triazol-1-yl)methyl)-3-fluorophenyl)-5-(difluoromethyl)-1,3,4-oxadiazole]
> 50000	685	72.9	–	–	–	Fc1cc(-c2nnc(C(F)F)o2)ccc1Cn1cc(-c2ccc(CN3CCCC3)c(Cl)c2)nn1 [Compound 18713, 2-(4-((4-(3-chloro-4-(pyrrolidin-1-ylmethyl)phenyl)-1H-1,2,3-triazol-1-yl)methyl)-3-fluorophenyl)-5-(difluoromethyl)-1,3,4-oxadiazole]
–	–	–	> 50000	432	116	O=S1(=O)CCN(Cc2cccc(-c3cn(Cc4ccc(-c5nnc(C(F)F)o5)cc4)nn3)c2)CC1 [Compound 4412, 4-(3-(1-(4-(5-(difluoromethyl)-1,3,4-oxadiazol-2-yl)benzyl)-1H-1,2,3-triazol-4-yl)benzyl)thiomorpholine 1,1-dioxide]
> 50000	646	77.3	–	–	–	Fc1cc(-c2nnc(C(F)F)o2)ccc1Cn1cc(-c2nccs2)nn1 [Compound 17848, 2-(difluoromethyl)-5-(3-fluoro-4-((4-(thiazol-2-yl)-1H-1,2,3-triazol-1-yl)methyl)phenyl)-1,3,4-oxadiazole]
> 50000	2777	18	–	–	–	Fc1cc(-c2nnc(C(F)F)o2)ccc1Cn1cc(-c2cncc(-c3cn[nH]c3)c2)nn1 [Compound 17058, 2-(4-((4-(5-(1H-pyrazol-4-yl)pyridin-3-yl)-1H-1,2,3-triazol-1-yl)methyl)-3-fluorophenyl)-5-(difluoromethyl)-1,3,4-oxadiazole]
> 50000	2262	22.1	–	–	–	CCN1CC(c2cccc(-c3cn(Cc4ccc(-c5nnc(C(F)F)o5)cc4F)nn3)c2)C1 [Compound 4506, 2-(difluoromethyl)-5-(4-((4-(3-(1-ethylazetidin-3-yl)phenyl)-1H-1,2,3-triazol-1-yl)methyl)-3-fluorophenyl)-1,3,4-oxadiazole]
> 50000	605	82.6	–	–	–	Fc1cc(-c2nnc(C(F)F)o2)ccc1Cn1cc(-c2csc(CN3CCCC3)c2)nn1 [Compound 18187, 2-(difluoromethyl)-5-(3-fluoro-4-((4-(5-(pyrrolidin-1-ylmethyl)thiophen-3-yl)-1H-1,2,3-triazol-1-yl)methyl)phenyl)-1,3,4-oxadiazole]
> 50000	657	76	–	–	–	Fc1cc(-c2nnc(C(F)F)o2)ccc1Cn1cc(-c2cccc3c2CN(C2CCC2)C3)nn1 [Compound 4537, 2-(4-((4-(2-cyclobutylisoindolin-4-yl)-1H-1,2,3-triazol-1-yl)methyl)-3-fluorophenyl)-5-(difluoromethyl)-1,3,4-oxadiazole]
–	–	–	> 50000	880	56.8	CC(C)N1CCc2cc(-c3cn(Cc4ccc(-c5nnc(C(F)F)o5)cn4)nn3)ccc2C1 [Compound 4053, 2-(difluoromethyl)-5-(6-((4-(2-isopropyl-1,2,3,4-tetrahydroisoquinolin-6-yl)-1H-1,2,3-triazol-1-yl)methyl)pyridin-3-yl)-1,3,4-oxadiazole]
–	–	–	> 50000	1754	28.5	CC(C)(C)OC(=O)Nc1cccc(-c2cn(Cc3ccc(-c4nnc(C(F)F)o4)cn3)nn2)c1 [Compound 3741, Tert-butyl (3-(1-((5-(5-(difluoromethyl)-1,3,4-oxadiazol-2-yl)pyridin-2-yl)methyl)-1H-1,2,3-triazol-4-yl)phenyl)carbamate]
> 50000	510	98	–	–	–	CN(C)Cc1ccc(-c2cn(Cc3ncc(-c4nnc(C(F)F)o4)cc3F)nn2)cc1Cl [Compound 19094, 1-(2-chloro-4-(1-((5-(5-(difluoromethyl)-1,3,4-oxadiazol-2-yl)-3-fluoropyridin-2-yl)methyl)-1H-1,2,3-triazol-4-yl)phenyl)-N,N-dimethylmethanamine]
–	–	–	> 50000	296	169	CC(C)(C)OC(=O)N1CCC(c2cccc(-c3cn(Cc4ccc(-c5nnc(C(F)F)o5)cn4)nn3)c2)CC1 [Compound 4001, tert-butyl 4-(3-(1-((5-(5-(difluoromethyl)-1,3,4-oxadiazol-2-yl)pyridin-2-yl)methyl)-1H-1,2,3-triazol-4-yl)phenyl)piperidin-1-carboxylate]
–	–	–	> 50000	759	65.8	CC(C)N1CC(c2cccc(-c3cn(Cc4ccc(-c5nnc(C(F)F)o5)cc4F)nn3)c2)C1 [Compound 4461, 2-(difluoromethyl)-5-(3-fluoro-4-((4-(3-(1-isopropylazetidin-3-yl)phenyl)-1H-1,2,3-triazol-1-yl)methyl)phenyl)-1,3,4-oxadiazole]
–	–	–	> 50000	289	173	Fc1ccc(-c2cn(Cc3ccc(-c4nnc(C(F)F)o4)cc3F)nn2)cc1F [Compound 3662, 2-(difluoromethyl)-5-(4-((4-(3,4-difluorophenyl)-1H-1,2,3-triazol-1-yl)methyl)-3-fluorophenyl)-1,3,4-oxadiazole]
–	–	–	> 50000	575	86.9	CC(C)(C)OC(=O)N1CCC(F)(c2cn(Cc3ccc(-c4nnc(C(F)F)o4)cn3)nn2)CC1 [Compound 3999, Tert-butyl 4-(1-((5-(5-(difluoromethyl)-1,3,4-oxadiazol-2-yl)pyridin-2-yl)methyl)-1H-1,2,3-triazol-4-yl)-4-fluoropiperidin-1-carboxylate]
> 50000	583	85.7	–	–	–	CN1Cc2ccc(-c3cn(Cc4ccc(-c5nnc(C(F)F)o5)cn4)nn3)cc2C1 [Compound 4540, 2-(difluoromethyl)-5-(6-((4-(2-methylisoindolin-5-yl)-1H-1,2,3-triazol-1-yl)methyl)pyridin-3-yl)-1,3,4-oxadiazole]
> 50000	512	97.5	–	–	–	CCN1Cc2cccc(-c3cn(Cc4ccc(-c5nnc(C(F)F)o5)cc4F)nn3)c2C1 [Compound 4535, 2-(difluoromethyl)-5-(4-((4-(2-ethylisoindolin-4-yl)-1H-1,2,3-triazol-1-yl)methyl)-3-fluorophenyl)-1,3,4-oxadiazole]
> 50000	986	50.7	–	–	–	CCN1CCN(Cc2ccc(-c3cn(Cc4ccc(-c5nnc(C(F)F)o5)cc4)nn3)cc2)CC1 [Compound 4553, 2-(difluoromethyl)-5-(4-((4-(4-((4-ethylpiperazin-1-yl)methyl)phenyl)-1H-1,2,3-triazol-1-yl)methyl)phenyl)-1,3,4-oxadiazole]
> 50000	1043	47.9	–	–	–	Fc1cc(-c2nnc(C(F)F)o2)ccc1Cn1cc(-c2ccc(C3CN(C4CCC4)C3)cc2)nn1 [Compound 17699, 2-(4-((4-(4-(1-cyclobutylazetidin-3-yl)phenyl)-1H-1,2,3-triazol-1-yl)methyl)-3-fluorophenyl)-5-(difluoromethyl)-1,3,4-oxadiazole]

— patent US20230257372A1 (CHONG KUN DANG PHARMACEUTICAL CORP., priority 2020, published 2023)
